Data from paper PMC6609562, “A new split‐luciferase complementation assay identifies pentachlorophenol as an inhibitor of apoptosome formation” (FEBS Open Bio, 2019).
Like-named read-outs stand apart in the source and are kept apart here.

What was measured:
[1] = test system: T1, apoptosome (Nluc/Apaf-1 + Cluc/Apaf-1, cytochrome c, dATP); assay: split-luciferase complementation in S-100 extract; format: biochemical, Homo sapiens; settings: 1.6 uM cytochrome c, 1 mM dATP, 25 °C; unreliable (reporter interference)
T1 construct: gene APAF1; Apaf-1 XL fused by Gly/Ser linker to firefly luciferase fragments (Nluc 1-416; Cluc 394-550 in legend, 395-550 in methods), expressed in HEK 293, S-100 extract
Excerpt: split-luciferase complementation in S-100 extract on apoptosome (Nluc/Apaf-1 + Cluc/Apaf-1, cytochrome c, dATP)

[2] = test system: T1, apoptosome (Nluc/Apaf-1 + Cluc/Apaf-1, cytochrome c, dATP); assay: split-luciferase complementation in S-100 extract; format: biochemical, Homo sapiens
[3] = test system: T2, cytochrome c; assay: thermal stability shift, soluble protein by Coomassie SDS-PAGE; format: binding; settings: destabilization at 58 °C, 1 mg/mL cytochrome c
T2 construct: gene CYCS

[4] = target: T3, Cluc-Apaf1 (Apaf-1 XL fused to the C-terminal fragment of firefly luciferase) (human), O14727; assay: split reporter (BiFC, NanoBiT); split firefly luciferase complementation; ice-cold S-100 extracts of Nluc-Apaf1 and Cluc-Apaf1 cells mixed 1:1, with and without 1.6 μM cytochrome c and 1 mM dATP (cytochrome c titrated in one experiment); One-Glo Luciferase Assay System, light read at 25 °C over 15 min; settings: remark: other sources report otherwise
T3 chain: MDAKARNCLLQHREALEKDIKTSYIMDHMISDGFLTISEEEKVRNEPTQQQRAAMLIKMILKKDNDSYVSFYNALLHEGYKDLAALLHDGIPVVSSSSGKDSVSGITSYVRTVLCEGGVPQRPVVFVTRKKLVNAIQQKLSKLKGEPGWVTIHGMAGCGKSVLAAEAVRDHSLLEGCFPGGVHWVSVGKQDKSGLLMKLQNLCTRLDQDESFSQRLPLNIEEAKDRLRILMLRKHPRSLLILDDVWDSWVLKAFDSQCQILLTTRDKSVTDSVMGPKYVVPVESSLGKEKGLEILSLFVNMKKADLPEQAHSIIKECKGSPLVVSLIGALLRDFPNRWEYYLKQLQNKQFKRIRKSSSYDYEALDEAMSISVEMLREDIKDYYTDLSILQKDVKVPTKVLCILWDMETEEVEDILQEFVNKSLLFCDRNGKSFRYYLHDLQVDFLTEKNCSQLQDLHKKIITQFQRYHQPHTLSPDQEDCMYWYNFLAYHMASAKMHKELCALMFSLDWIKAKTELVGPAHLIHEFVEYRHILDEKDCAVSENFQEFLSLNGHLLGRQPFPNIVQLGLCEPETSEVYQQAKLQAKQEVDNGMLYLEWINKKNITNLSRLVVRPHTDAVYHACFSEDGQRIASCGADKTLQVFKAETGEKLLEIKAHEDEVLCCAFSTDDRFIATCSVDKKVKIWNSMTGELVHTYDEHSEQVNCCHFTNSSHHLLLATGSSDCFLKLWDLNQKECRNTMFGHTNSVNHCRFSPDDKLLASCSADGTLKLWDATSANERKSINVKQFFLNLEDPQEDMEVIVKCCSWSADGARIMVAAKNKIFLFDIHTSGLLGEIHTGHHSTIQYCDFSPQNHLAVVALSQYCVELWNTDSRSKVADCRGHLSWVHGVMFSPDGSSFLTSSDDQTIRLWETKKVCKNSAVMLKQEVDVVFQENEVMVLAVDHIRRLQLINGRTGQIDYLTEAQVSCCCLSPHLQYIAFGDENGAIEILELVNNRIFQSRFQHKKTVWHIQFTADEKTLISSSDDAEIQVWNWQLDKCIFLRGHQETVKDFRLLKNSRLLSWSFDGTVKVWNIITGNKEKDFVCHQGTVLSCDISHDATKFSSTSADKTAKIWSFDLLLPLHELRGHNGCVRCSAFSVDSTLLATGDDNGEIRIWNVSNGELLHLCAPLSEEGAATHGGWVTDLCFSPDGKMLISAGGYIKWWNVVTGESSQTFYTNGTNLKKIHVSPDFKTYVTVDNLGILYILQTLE

## Clc1nc(Cl)nc(Nc2ccccc2Cl)n1 [Anilazine]
[1]
  IC50 (mM) / S. luc: 2.99 mM

## O=C(Nc1cccc(C(F)(F)F)c1)Nc1cc(Cl)ccc1C(=O)O [NS3694, 4‐chloro‐2‐[[3‐(trifluoromethyl)phenyl]carbamoylamino]benzoic acid]
[2]; diluted extract, cytochrome c and dATP added, read-out: IC50
  IC50: ~0.17 mM

## Oc1c(Cl)c(Cl)c(Cl)c(Cl)c1Cl [Pentachlorophenol]
[2]; 1.6 uM cytochrome c, 1 mM dATP, 25 °C, site assigned to cytochrome c, read-out: IC50 (mM) / S. luc
  IC50: 0.17 mM
[3]
  EC50: ~600 µM

## CN(C)C1CSSSC1 [Thiocyclam]
[1]
  IC50 (mM) / S. luc: 0.20 mM

## CN(C)C(=S)SSC(=S)N(C)C [Thiram]
[1]
  IC50 (mM) / S. luc: 1.38 mM

B1: Nluc-Apaf1 (Apaf-1 XL fused to the N-terminal fragment of firefly luciferase), O14727-1 1-1248 (natural protein)
chain: T3 chain
[4]
  EC50 of cytochrome c for split luciferase activity: 0.15 µM
